# Key:
# [1] = tested on: rat cortical neurons; test: Hypoxia-induced apoptosis of rat cortical neurons; format: cell-based, Wistar rat; details: Cortical neurone, oxygen-depleted serum-free medium, Cell Death Detection ELISA (DNA fragmentation)
# Procedure: Cortical neurons are dissociated from Wistar rat embryos (E17) by a modification of the procedure of Rogers et al., Brain Res. Bulletin, 44:131 (1998). Briefly, cerebral cortices are isolated aseptically from 15-20 Wistar rat embryos. A cell suspension is prepared by mincing the cerebral cortices and digesting them with papain. Cells are washed with ovomucoid enzyme inhibitor and DNaseI and plated onto Poly-D lysine coated plates in high glucose DMEM containing 10% heat-inactivated fetal calf serum, L-glutamine, penicillin and streptomycin. The yield of neurons is […] per embryo and they are 80-90% viable as assessed by Trypan blue exclusion.
# The neurons are cultured in complete medium at 37° C. in a normal atmosphere for 48 hours prior to the hypoxia experiments. For hypoxia, the normal cell medium is replaced by oxygen-depleted serum-free medium. Cells are incubated in an atmosphere of 95% N2/5% CO2 for various lengths of time. Compounds are dissolved in DMSO at 100 mM then diluted in medium and added to the culture from time=0. The level of apoptosis is measured using a Cell Death Detection ELISA kit (Roche) which detects DNA fragmentation. Plates are read at 405 nm. Controls included cells cultured in aerobic conditions in serum-containing medium (+serum) and cells cultured in aerobic conditions in serum-deprived medium (−serum).
# Compounds with an IC50>0.5 μM are listed as “A”. Compounds with an IC50 between 0.1 μM and 0.5 uM are listed as “B”. Compounds with an IC50<0.1 μM are listed as “C”.
# [2] = target: T1, recombinant, purified human Caspase-3 (Homo sapiens, UniProt P42574); test: Enzyme assay, caspase inhibition (fluorogenic substrate cleavage); format: biochemical; details: second order rate constant of enzyme inactivation; substrate Acetyl-Asp-Glu-Val-Asp-amino-4-methylcoumarin
# T1 sequence (P42574 29-175 limits assumed): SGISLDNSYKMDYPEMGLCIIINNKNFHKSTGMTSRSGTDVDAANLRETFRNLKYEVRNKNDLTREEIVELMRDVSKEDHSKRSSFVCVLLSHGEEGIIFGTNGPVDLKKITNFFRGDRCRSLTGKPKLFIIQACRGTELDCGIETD
# T1 sequence (P42574 176-277 limits assumed): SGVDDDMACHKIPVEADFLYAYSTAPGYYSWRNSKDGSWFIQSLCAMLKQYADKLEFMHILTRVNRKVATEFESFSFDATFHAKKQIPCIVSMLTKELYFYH
# Description: (§1) The assays for caspase inhibition are based on the cleavage of a fluorogenic substrate by recombinant, purified human Caspases −1, −3, −7 or −8. The assays are run in essentially the same way as those reported by Garcia-Calvo et al., J. Biol. Chem. 273, 32608-32613 (1998), using a substrate specific for each enzyme. The substrate for Caspase-1 is Acetyl-Tyr-Val-Ala-Asp-amino-4-methylcoumarin and the substrate for Caspases −3, −7 and −8 is Acetyl-Asp-Glu-Val-Asp-amino-4-methylcoumarin both as disclosed in Garcia-Calvo et al., J. Biol. Chem. 273, 32608-32613 (1998).
# (§2) The observed rate of enzyme inactivation at a particular inhibitor concentration, kobs, is computed by direct fits of the data to the equation derived by Thornberry et al., Biochemistry, 33, […] (1994) using a nonlinear least-squares analysis computer program (PRISM 2.0; GraphPad software). To obtain the second order rate constant, kinact, kobs values are plotted against their respective inhibitor concentrations and kinact values are subsequently calculated by computerized linear regression.
# (§3) Compounds with kinact(M^−1s^−1)>500000 are listed as “A”. Compounds with kinact(M^−1s^−1) between 100000 and 500000 are listed as “B”. Compounds with kinact(M^−1s^−1)<100000 are listed as “C”.
# [3] = target: T2, recombinant, purified human Caspase-1 (Homo sapiens, UniProt P29466); test: as above; format: biochemical; details: second order rate constant of enzyme inactivation; substrate Acetyl-Tyr-Val-Ala-Asp-amino-4-methylcoumarin
# T2 sequence (P29466 120-297 limits assumed): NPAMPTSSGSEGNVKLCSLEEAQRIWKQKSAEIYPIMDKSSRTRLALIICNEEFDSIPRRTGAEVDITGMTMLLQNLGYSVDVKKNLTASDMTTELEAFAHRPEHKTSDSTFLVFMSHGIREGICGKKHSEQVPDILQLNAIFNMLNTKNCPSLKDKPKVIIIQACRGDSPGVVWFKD
# T2 sequence (P29466 317-404 limits assumed): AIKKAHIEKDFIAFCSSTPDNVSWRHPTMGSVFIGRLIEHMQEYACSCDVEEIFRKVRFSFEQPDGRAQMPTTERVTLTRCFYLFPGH
# Description: as §1, §2, §3
# [4] = target: recombinant, purified human Caspase-8 (Homo sapiens, UniProt Q14790); test: as above; format: biochemical; details: second order rate constant of enzyme inactivation; substrate Acetyl-Asp-Glu-Val-Asp-amino-4-methylcoumarin
# Description: as §1, §2, §3
# [5] = tested on: IL-1β secretion from human whole blood; test: Inhibition of IL-1β secretion from whole blood; format: cell-based; details: human whole blood diluted 1:2 in PBS, LPS 5 ng/ml, 18 hours, ELISA
# Procedure: Human blood is freshly drawn from healthy donors and diluted 1:2 in PBS. To 500 μl of diluted blood […] of prediluted test compound in RPMI medium and […] LPS (5 ng/ml final concentration on the plate) are added (LPS, Serotype 0111:B4, Sigma L3012). After stimulation for 18 hours supernatants are collected and assayed for IL-1β levels using the appropriate ELISA kit (R&D systems).
# Compounds with an IC50>10 μM are listed as “A”. Compounds with an IC50 between 1 μM and 10 uM are listed as “B”. Compounds with an IC50<1 μM are listed as “C”.
# Sequence of recombinant, purified human Caspase-8 (Q14790 217-374 limits assumed): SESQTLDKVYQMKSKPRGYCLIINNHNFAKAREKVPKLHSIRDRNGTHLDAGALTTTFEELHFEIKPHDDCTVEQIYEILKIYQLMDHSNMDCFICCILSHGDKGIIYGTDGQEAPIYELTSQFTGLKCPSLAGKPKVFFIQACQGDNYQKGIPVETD
# Sequence of recombinant, purified human Caspase-8 (Q14790 385-479 limits assumed): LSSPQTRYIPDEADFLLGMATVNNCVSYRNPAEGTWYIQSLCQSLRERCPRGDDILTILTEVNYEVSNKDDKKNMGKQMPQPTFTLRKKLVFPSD
SMILES,IC50 [5] [nM],IC50 [1] [nM],kinact Caspase-3 [2],kinact Caspase-1 [3],kinact Caspase-8 [4]
"CC[C@@H](C(=O)NC(CC(=O)O)C(=O)CF)n1cnc2ccc(Sc3ccccc3)cc2c1=O (stereo partly drawn) [Compound 16, 5-Fluoro-4-oxo-3-[(2S)-2-(4-oxo-6-phenylsulfanyl-4H-quinazolin-3-yl)-butyrylamino]-pentanoic acid]",1000 to 10000,100 to 500,A (Compounds with kinact(M^−1s^−1)>500000 are listed as “A”),A (Compounds with kinact(M^−1s^−1)>500000 are listed as “A”),A (Compounds with kinact(M^−1s^−1)>500000 are listed as “A”)
"CC[C@@H](C(=O)N[C@@H](CC(=O)O)C(=O)COc1c(F)cc(F)cc1F)n1cnc2ccccc2c1=O [Compound 7, (S,S)-4-Oxo-3-[2-(4-oxo-4H-quinazolin-3-yl)-butyrylamino]-5-(2,4,6-trifluoro-phenoxy)-pentanoic acid]",> 10000,> 500,B (Compounds with kinact(M^−1s^−1) between 100000 and 500000 are listed as “B”),C (Compounds with kinact(M^−1s^−1)<100000 are listed as “C”),C (Compounds with kinact(M^−1s^−1)<100000 are listed as “C”)
"CC[C@@H](C(=O)NC(CC(=O)O)C(=O)CF)n1cnc2ccc(Oc3ccccc3Cl)cc2c1=O (stereo partly drawn) [Compound 12, 3-[(2S)-2-[6-(2-Chloro-phenoxy)-4-oxo-4H-quinazolin-3-yl)-butyrylamino]-5-fluoro-4-oxo-pentanoic acid]",1000 to 10000,> 500,A (Compounds with kinact(M^−1s^−1)>500000 are listed as “A”),A (Compounds with kinact(M^−1s^−1)>500000 are listed as “A”),A (Compounds with kinact(M^−1s^−1)>500000 are listed as “A”)
"CC[C@@H](C(=O)NC(CC(=O)O)C(=O)CF)n1cnc2ccc(Oc3ccc(Cl)cc3Cl)cc2c1=O (stereo partly drawn) [Compound 15, 3-{(2S)-2-[6-(2,4-Dichloro-phenoxy)-4-oxo-4H-quinazolin-3-yl]-butyrylamino}-5-fluoro-4-oxo-pentanoic acid]",1000 to 10000,100 to 500,B (Compounds with kinact(M^−1s^−1) between 100000 and 500000 are listed as “B”),B (Compounds with kinact(M^−1s^−1) between 100000 and 500000 are listed as “B”),A (Compounds with kinact(M^−1s^−1)>500000 are listed as “A”)
"CC[C@@H](C(=O)NC(CC(=O)O)C(=O)CF)n1ccc2cc(Cl)ccc2c1=O (mixture of isomers) [Compound 3, (S)-3-[2-(6-chloro-1-oxo-1H-isoquinolin-2-yl)-butyrylamino]-5-fluoro-4-oxo-pentanoic acid]",1000 to 10000,100 to 500,B (Compounds with kinact(M^−1s^−1) between 100000 and 500000 are listed as “B”),B (Compounds with kinact(M^−1s^−1) between 100000 and 500000 are listed as “B”),C (Compounds with kinact(M^−1s^−1)<100000 are listed as “C”)

# Further lines, with some results ahead:
IC50 [5] [nM],SMILES,IC50 [1] [nM],kinact Caspase-3 [2],kinact Caspase-1 [3],kinact Caspase-8 [4]
1000 to 10000,"CC[C@@H](C(=O)NC(CC(=O)O)C(=O)CF)n1cnc2ccc(Oc3cccc(Cl)c3)cc2c1=O (stereo partly drawn) [Compound 13, 3-[(2S)-2-[6-(3-Chlorophenoxy)-4-oxo-4H-quinazolin-3-yl)-butyrylamino]-5-fluoro-4-oxo-pentanoic acid]",100 to 500,B (Compounds with kinact(M^−1s^−1) between 100000 and 500000 are listed as “B”),B (Compounds with kinact(M^−1s^−1) between 100000 and 500000 are listed as “B”),A (Compounds with kinact(M^−1s^−1)>500000 are listed as “A”)
1000 to 10000,"CC[C@@H](C(=O)N[C@@H](CC(=O)O)C(=O)COc1c(F)c(F)cc(F)c1F)n1ccc2ccc(C(F)(F)F)cc2c1=O [Compound 19, (S,S)-3-[2-(7-trifluoromethyl-1-oxo-1H-isoquinolin-2-yl)-butyrylamino]-4-oxo-5-(2,3,5,6-tetrafluoro-phenoxy)-pentanoic acid]",< 100,A (Compounds with kinact(M^−1s^−1)>500000 are listed as “A”),A (Compounds with kinact(M^−1s^−1)>500000 are listed as “A”),C (Compounds with kinact(M^−1s^−1)<100000 are listed as “C”)
< 1000,"CC[C@@H](C(=O)NC(CC(=O)O)C(=O)CF)n1cnc2ccc(Oc3cccc(F)c3)cc2c1=O (stereo partly drawn) [Compound 14, 5-Fluoro-3-{(2S)-2[6-(3-fluorophenoxy)-4-oxo-4H-quinazolin-3-yl]-butyrylamino}-4-oxo-pentanoic acid]",> 500,A (Compounds with kinact(M^−1s^−1)>500000 are listed as “A”),A (Compounds with kinact(M^−1s^−1)>500000 are listed as “A”),B (Compounds with kinact(M^−1s^−1) between 100000 and 500000 are listed as “B”)
< 1000,"CC[C@@H](C(=O)NC(CC(=O)O)C(=O)CF)n1ccc2ccc(C(F)(F)F)cc2c1=O (mixture of isomers) [Compound 2, (S)-3-[2-(7-trifluoromethyl-1-oxo-1H-isoquinolin-2-yl)-butyrylamino]-5-fluoro-4-oxo-pentanoic acid]",> 500,A (Compounds with kinact(M^−1s^−1)>500000 are listed as “A”),A (Compounds with kinact(M^−1s^−1)>500000 are listed as “A”),A (Compounds with kinact(M^−1s^−1)>500000 are listed as “A”)
< 1000,"CCCSc1ccc2ncn([C@@H](CC)C(=O)NC(CC(=O)O)C(=O)CF)c(=O)c2c1 (stereo partly drawn) [Compound 22, 5-Fluoro-4-oxo-3-[(2S)-2-(4-oxo-6-propylsulfanyl-4H-quinazolin-3-yl)-butyrylamino]-pentanoic acid]",> 500,A (Compounds with kinact(M^−1s^−1)>500000 are listed as “A”),A (Compounds with kinact(M^−1s^−1)>500000 are listed as “A”),A (Compounds with kinact(M^−1s^−1)>500000 are listed as “A”)
< 1000,"CC[C@@H](C(=O)NC(CC(=O)O)C(=O)CF)n1ccc2ccc(Cl)cc2c1=O (mixture of isomers) [Compound 1, (S)-3-[2-(7-chloro-1-oxo-1H-isoquinolin-2-yl)-butyrylamino]-5-fluoro-4-oxo-pentanoic acid]",100 to 500,A (Compounds with kinact(M^−1s^−1)>500000 are listed as “A”),A (Compounds with kinact(M^−1s^−1)>500000 are listed as “A”),B (Compounds with kinact(M^−1s^−1) between 100000 and 500000 are listed as “B”)
